Measured values: ChEMBL document CHEMBL3632477 (2015)
Where a SMILES comes first, the peptide text is derived from it. Bridges are numbered along the chain shown (N, C = ends). [ ]: non-standard residue; d: D form. ξ: configuration not given here. Bip(2'-Et-4'-OMe) = CCc1cc(OC)ccc1-c1ccc(C[C@H](N)C(=O)O)cc1; αMePhe(2,6-F2) = C[C@](N)(Cc1c(F)cccc1F)C(=O)O; ξαMePhe(2,6-F2) = CC(N)(Cc1c(F)cccc1F)C(=O)O; Bip = N[C@@H](Cc1ccc(-c2ccccc2)cc1)C(=O)O; αMePhe(2-F) = C[C@](N)(Cc1ccccc1F)C(=O)O; ξαMePhe(2-F) = CC(N)(Cc1ccccc1F)C(=O)O; hhPhe = N[C@@H](CCCc1ccccc1)C(=O)O; αMeF = C[C@](N)(Cc1ccccc1)C(=O)O; ξαMeF = CC(N)(Cc1ccccc1)C(=O)O; Pen = CC(C)(S)[C@H](N)C(=O)O; Aib = CC(C)(N)C(=O)O

Target: Glucagon-like peptide 1 receptor (Homo sapiens, UniProt P43220)
Sequence (P43220 whole entry): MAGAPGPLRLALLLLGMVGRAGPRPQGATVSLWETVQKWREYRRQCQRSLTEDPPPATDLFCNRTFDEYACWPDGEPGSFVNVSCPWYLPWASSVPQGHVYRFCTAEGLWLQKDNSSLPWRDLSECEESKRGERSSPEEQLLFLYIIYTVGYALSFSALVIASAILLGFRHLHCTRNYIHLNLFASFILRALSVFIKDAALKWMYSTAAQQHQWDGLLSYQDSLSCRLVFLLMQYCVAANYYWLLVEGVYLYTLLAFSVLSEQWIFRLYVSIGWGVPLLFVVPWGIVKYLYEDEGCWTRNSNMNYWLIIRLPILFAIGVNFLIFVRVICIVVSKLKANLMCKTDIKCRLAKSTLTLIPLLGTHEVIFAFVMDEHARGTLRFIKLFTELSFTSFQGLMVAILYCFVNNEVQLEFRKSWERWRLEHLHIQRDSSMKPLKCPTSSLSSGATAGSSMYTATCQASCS
Assay: Agonist activity at human GLP-1R expressed in CHO-K1 cells assessed as increase in cAMP level incubated for 30 mins
Type: functional, cell-based

Compound | EC50
CCc1cc(OC)ccc1-c1ccc(C[C@H](NC(=O)[C@H](CC(=O)O)NC(=O)[C@H](CO)NC(=O)[C@@H](NC(=O)[C@](C)(Cc2c(F)cccc2F)NC(=O)[C@@H](NC(=O)CNC(=O)[C@H](CCC(=O)O)NC(=O)[C@@H]2CCCN2C(=O)[C@@H](N)Cc2cnc[nH]2)[C@@H](C)O)[C@@H](C)O)C(=O)N[C@@H](CCCc2ccccc2)C(=O)N[C@H]2CSSC[C@@H](C(=O)N[C@@H](CO)C(=O)O)NC(=O)[C@H](C)NC(=O)CNC(=O)CNC(=O)CNC(=O)[C@H](C)NC(=O)[C@H](C)NC(=O)CNC(=O)CNC2=O)cc1 (H-HPEGT[αMePhe(2,6-F2)]TSD[Bip(2'-Et-4'-OMe)][hhPhe]CGGAAGGGACS-OH; disulfide 12-21) | 0.00085 µM
CCc1cc(OC)ccc1-c1ccc(C[C@H](NC(=O)[C@H](CC(=O)O)NC(=O)[C@H](CO)NC(=O)[C@@H](NC(=O)[C@](C)(Cc2c(F)cccc2F)NC(=O)[C@@H](NC(=O)CNC(=O)[C@H](CCC(=O)O)NC(=O)[C@@H]2CCCN2C(=O)[C@@H](N)Cc2cnc[nH]2)[C@@H](C)O)[C@@H](C)O)C(=O)N[C@@H](CCCc2ccccc2)C(=O)N[C@H]2CSSC[C@@H](C(=O)N[C@@H](CO)C(=O)O)NC(=O)[C@H](C(C)C)NC(=O)[C@H](C(C)C)NC(=O)CNC(=O)[C@H](C(C)C)NC(=O)[C@H](C(C)C)NC(=O)[C@H](C(C)C)NC(=O)CNC(=O)CNC2=O)cc1 (H-HPEGT[αMePhe(2,6-F2)]TSD[Bip(2'-Et-4'-OMe)][hhPhe]CGGVVVGVVCS-OH; disulfide 12-21) | 0.019 µM
CCc1cc(OC)ccc1-c1ccc(C[C@H](NC(=O)[C@H](CC(=O)O)NC(=O)[C@H](CO)NC(=O)[C@@H](NC(=O)[C@](C)(Cc2c(F)cccc2F)NC(=O)[C@@H](NC(=O)CNC(=O)[C@H](CCC(=O)O)NC(=O)[C@@H]2CCCN2C(=O)[C@@H](N)Cc2cnc[nH]2)[C@@H](C)O)[C@@H](C)O)C(=O)N[C@@H](CCCc2ccccc2)C(=O)N[C@H]2CSSC[C@@H](C(=O)N[C@@H](CO)C(=O)O)NC(=O)[C@H](C)NC(=O)CNC(=O)CNC(=O)CNC(=O)[C@H](C)NC(=O)[C@H](C)NC(=O)[C@H](Cc3ccc(-c4ccccc4)cc3)NC(=O)CNC2=O)cc1 (H-HPEGT[αMePhe(2,6-F2)]TSD[Bip(2'-Et-4'-OMe)][hhPhe]CG[Bip]AAGGGACS-OH; disulfide 12-21) | 0.0024 µM
CCc1cc(OC)ccc1-c1ccc(C[C@H](NC(=O)[C@H](CC(=O)O)NC(=O)[C@H](CO)NC(=O)[C@@H](NC(=O)[C@](C)(Cc2c(F)cccc2F)NC(=O)[C@@H](NC(=O)CNC(=O)[C@H](CCC(=O)O)NC(=O)[C@@H]2CCCN2C(=O)[C@@H](N)Cc2cnc[nH]2)[C@@H](C)O)[C@@H](C)O)C(=O)N[C@@H](CCCc2ccccc2)C(=O)N[C@H](C(=O)NCC(=O)NCC(=O)N[C@@H](C)C(=O)N[C@@H](C)C(=O)NCC(=O)NCC(=O)NCC(=O)N[C@@H](C)C(=O)N[C@H](C(=O)N[C@@H](CO)C(=O)O)C(C)(C)S)C(C)(C)S)cc1 (H-HPEGT[αMePhe(2,6-F2)]TSD[Bip(2'-Et-4'-OMe)][hhPhe][Pen]GGAAGGGA[Pen]S-OH) | 0.0025 µM
CCc1cc(OC)ccc1-c1ccc(C[C@H](NC(=O)[C@H](CC(=O)O)NC(=O)[C@H](CO)NC(=O)[C@@H](NC(=O)[C@](C)(Cc2ccccc2F)NC(=O)[C@@H](NC(=O)CNC(=O)[C@H](CCC(=O)O)NC(=O)[C@@H]2CCCN2C(=O)[C@@H](N)Cc2cnc[nH]2)[C@@H](C)O)[C@@H](C)O)C(=O)N[C@@H](CCCc2ccccc2)C(=O)N[C@H]2CSSC[C@@H](C(=O)N[C@@H](CO)C(=O)O)NC(=O)[C@H](C)NC(=O)CNC(=O)CNC(=O)CNC(=O)[C@H](C)NC(=O)[C@H](C)NC(=O)CNC(=O)CNC2=O)cc1 (H-HPEGT[αMePhe(2-F)]TSD[Bip(2'-Et-4'-OMe)][hhPhe]CGGAAGGGACS-OH; disulfide 12-21) | 0.001 µM
CCc1cc(OC)ccc1-c1ccc(C[C@@H]2NC(=O)[C@H](CC(=O)O)NC(=O)[C@H](CO)NC(=O)[C@@H]3CSSC[C@@H](C(=O)O)NC(=O)[C@H](CSSC[C@H](NC(=O)CNC(=O)[C@H](CCC(=O)O)NC(=O)C(C)(C)NC(=O)[C@@H](N)Cc4cnc[nH]4)C(=O)N[C@@H](Cc4ccccc4)C(=O)N3)NC(=O)[C@H](CC(C)C)NC(=O)[C@H](CCCc3ccccc3)NC2=O)cc1 (H-H[Aib]EGCFCSD[Bip(2'-Et-4'-OMe)][hhPhe]LCC-OH; disulfide 5-13, 7-14) | 16 µM
CCc1cc(OC)ccc1-c1ccc(C[C@@H]2NC(=O)[C@H](CC(=O)O)NC(=O)[C@H](CO)NC(=O)[C@@H]3CSSC[C@@H](C(=O)O)NC(=O)[C@H](CSSC[C@H](NC(=O)CNC(=O)[C@H](CCC(=O)O)NC(=O)C(C)(C)NC(=O)[C@@H](N)Cc4cnc[nH]4)C(=O)N[C@@](C)(Cc4c(F)cccc4F)C(=O)N3)NC(=O)[C@H](Cc3ccc(-c4ccccc4)cc3)NC(=O)[C@H](CCCc3ccccc3)NC2=O)cc1 (H-H[Aib]EGC[αMePhe(2,6-F2)]CSD[Bip(2'-Et-4'-OMe)][hhPhe][Bip]CC-OH; disulfide 5-13, 7-14) | 7.5 µM
CCc1cc(OC)ccc1-c1ccc(C[C@H](NC(=O)[C@H](CS)NC(=O)[C@H](CO)NC(=O)[C@@H](NC(=O)[C@](C)(Cc2ccccc2F)NC(=O)[C@H](CS)NC(=O)CNC(=O)[C@H](CCC(=O)O)NC(=O)C(C)(C)NC(=O)[C@@H](N)Cc2cnc[nH]2)[C@@H](C)O)C(=O)N[C@@H](CCCc2ccccc2)C(N)=O)cc1 (H-H[Aib]EGC[αMePhe(2-F)]TSC[Bip(2'-Et-4'-OMe)][hhPhe]-NH2) | 0.85 µM
CCc1cc(OC)ccc1-c1ccc(C[C@@H]2NC(=O)[C@H](CC(=O)O)NC(=O)[C@H](CO)NC(=O)[C@@H]3CSSC[C@@H](C(=O)O)NC(=O)[C@H](CSSC[C@H](NC(=O)CNC(=O)[C@H](CCC(=O)O)NC(=O)C(C)(C)NC(=O)[C@@H](N)Cc4cnc[nH]4)C(=O)NC(C)(Cc4ccccc4)C(=O)N3)NC(=O)[C@H](CC(C)C)NC(=O)[C@H](CCCc3ccccc3)NC2=O)cc1 (stereo partly specified) (H-H[Aib]EGC[ξαMeF]CSD[Bip(2'-Et-4'-OMe)][hhPhe]LCC-OH; disulfide 5-13, 7-14) | 1.6 µM
CCc1cc(OC)ccc1-c1ccc(C[C@@H]2NC(=O)[C@H](CC(=O)O)NC(=O)[C@H](CO)NC(=O)[C@@H]3CSSC[C@@H](C(=O)O)NC(=O)[C@H](CSSC[C@H](NC(=O)CNC(=O)[C@H](CCC(=O)O)NC(=O)C(C)(C)NC(=O)[C@@H](N)Cc4cnc[nH]4)C(=O)NC(C)(Cc4c(F)cccc4F)C(=O)N3)NC(=O)[C@H](CC(C)C)NC(=O)[C@H](CCCc3ccccc3)NC2=O)cc1 (stereo partly specified) (H-H[Aib]EGC[ξαMePhe(2,6-F2)]CSD[Bip(2'-Et-4'-OMe)][hhPhe]LCC-OH; disulfide 5-13, 7-14) | 0.43 µM
CCc1cc(OC)ccc1-c1ccc(C[C@@H]2NC(=O)[C@H](CC(=O)O)NC(=O)[C@H](CO)NC(=O)[C@@H]3CSSC[C@@H](C(=O)O)NC(=O)[C@H](CSSC[C@H](NC(=O)CNC(=O)[C@H](CCC(=O)O)NC(=O)C(C)(C)NC(=O)[C@@H](N)Cc4cnc[nH]4)C(=O)NC(C)(Cc4ccccc4F)C(=O)N3)NC(=O)[C@H](CC(C)C)NC(=O)[C@H](CCCc3ccccc3)NC2=O)cc1 (stereo partly specified) (H-H[Aib]EGC[ξαMePhe(2-F)]CSD[Bip(2'-Et-4'-OMe)][hhPhe]LCC-OH; disulfide 5-13, 7-14) | 5 µM
CC(C)C[C@@H]1NC(=O)[C@H](Cc2ccccc2)NC(=O)[C@H](CC(N)=O)NC(=O)[C@H](CCCNC(=N)N)NC(=O)[C@H](CCCCN)NC(=O)[C@@H]2CSSC[C@@H](C(N)=O)NC(=O)[C@H](CSSC[C@H](NC(=O)[C@@H](N)CO)C(=O)N[C@@H](CO)C(=O)N2)NC1=O (H-SCSCKRNFLCC-NH2; disulfide 2-10, 4-11) | 0.00047 µM
CCc1cc(OC)ccc1-c1ccc(C[C@@H]2NC(=O)[C@H](CC(=O)O)NC(=O)[C@H](CO)NC(=O)[C@H]([C@@H](C)O)NC(=O)[C@H](Cc3ccccc3)NC(=O)[C@H]([C@@H](C)O)NC(=O)CNC(=O)[C@H](CCC(=O)O)NC(=O)[C@@H]3CCCN3C(=O)[C@H](Cc3cnc[nH]3)NC(=O)[C@H](CO)NC(=O)[C@@H]3CSSC[C@H](NC(=O)[C@H](CCCc4ccccc4)NC2=O)C(=O)NCC(=O)NCC(=O)N[C@@H](C)C(=O)N[C@@H](C)C(=O)NCC(=O)NCC(=O)NCC(=O)N[C@@H](C)C(=O)N3)cc1 (cyclo(AAGGGACSHPEGTFTSD[Bip(2'-Et-4'-OMe)][hhPhe]CGG); disulfide 7-20) | 0.39 µM
CCc1cc(OC)ccc1-c1ccc(C[C@@H]2NC(=O)[C@H](CC(=O)O)NC(=O)[C@H](CO)NC(=O)[C@H]([C@@H](C)O)NC(=O)[C@](C)(Cc3ccccc3)NC(=O)[C@H]([C@@H](C)O)NC(=O)CNC(=O)[C@H](CCC(=O)O)NC(=O)[C@@H]3CCCN3C(=O)[C@H](Cc3cnc[nH]3)NC(=O)[C@H](CO)NC(=O)[C@@H]3CSSC[C@H](NC(=O)[C@H](CCCc4ccccc4)NC2=O)C(=O)NCC(=O)NCC(=O)N[C@@H](C)C(=O)N[C@@H](C)C(=O)NCC(=O)NCC(=O)NCC(=O)N[C@@H](C)C(=O)N3)cc1 (cyclo(AAGGGACSHPEGT[αMeF]TSD[Bip(2'-Et-4'-OMe)][hhPhe]CGG); disulfide 7-20) | 2 µM
CCc1cc(OC)ccc1-c1ccc(C[C@@H]2NC(=O)[C@H](CC(=O)O)NC(=O)[C@H](CO)NC(=O)[C@H]([C@@H](C)O)NC(=O)[C@](C)(Cc3ccccc3)NC(=O)[C@H]([C@@H](C)O)NC(=O)CNC(=O)[C@H](CCC(=O)O)NC(=O)[C@@H]3CCCN3C(=O)[C@H](Cc3cnc[nH]3)NC(=O)[C@H](CO)NC(=O)[C@@H]3CSSC[C@H](NC(=O)[C@H](CCCc4ccccc4)NC2=O)C(=O)NCC(=O)N[C@@H](Cc2ccc(-c4ccccc4)cc2)C(=O)N[C@@H](C)C(=O)N[C@@H](C)C(=O)NCC(=O)NCC(=O)NCC(=O)N[C@@H](C)C(=O)N3)cc1 (cyclo(AAGGGACSHPEGT[αMeF]TSD[Bip(2'-Et-4'-OMe)][hhPhe]CG[Bip]); disulfide 7-20) | 0.36 µM
CCc1cc(OC)ccc1-c1ccc(C[C@@H]2NC(=O)[C@H](CC(=O)O)NC(=O)[C@H](CO)NC(=O)[C@H]([C@@H](C)O)NC(=O)[C@](C)(Cc3c(F)cccc3F)NC(=O)[C@H]([C@@H](C)O)NC(=O)CNC(=O)[C@H](CCC(=O)O)NC(=O)[C@@H]3CCCN3C(=O)[C@H](Cc3cnc[nH]3)NC(=O)[C@H](CO)NC(=O)[C@@H]3CSSC[C@H](NC(=O)[C@H](CCCc4ccccc4)NC2=O)C(=O)NCC(=O)NCC(=O)N[C@@H](C)C(=O)N[C@@H](C)C(=O)NCC(=O)NCC(=O)NCC(=O)N[C@@H](C)C(=O)N3)cc1 (cyclo(AAGGGACSHPEGT[αMePhe(2,6-F2)]TSD[Bip(2'-Et-4'-OMe)][hhPhe]CGG); disulfide 7-20) | 0.43 µM
